system: P. falciparum 3D7 growth, pLDH absorbance; test: blood-stage malaria parasite growth potency – strain 3D7, dose response (AID 2305)

Structure (SMILES) | IC50
CCN1CCC(N(Cc2ccc(-c3ccc(C(F)(F)F)cc3)cc2)C(=O)CCCCn2c(CCc3cccc(F)c3F)nc(=O)c3ccccc32)CC1 | 990 nM
CC(C)(C)c1nn(-c2ccc(Cl)cc2)c2[nH]c(=O)c(CNCc3ccc4c(c3)OCO4)cc12 | 810 nM
C[C@@H](CC1CCCCC1)NCc1ccccc1O | 930 nM
O=c1c(NCCCN(Cc2ccc(F)cc2)c2ccccn2)c(NCc2ccncc2)c1=O | 150 nM
O=C(Nc1ccc(-c2nc3ccccc3[nH]2)cc1)C1CCN(Cc2cccc(F)c2F)CC1 | 1100 nM
Fc1ccc(NC(=S)NCCc2ccccc2)cc1 | 780 nM
CCCCOc1c(CCNCCCCNCCc2cc(OC)c3ccccc3c2OCCCC)cc(OC)c2ccccc12 | 920 nM
O=C(/C=C/c1ccc(Cl)cc1)NCCCCCN1CCCC(C(=O)Nc2cccc(Cl)c2)C1 (configuration not stated) | 210 nM
Cc1cccc(-n2c(=O)c3c4c(sc3n3c(SCCC(C)C)nnc23)CCCC4)c1 | 760 nM
O=C(Nc1ccc(OC2CCN(Cc3ccc(F)cc3)C2)c(Cl)c1)c1ccco1 (configuration not stated) | 190 nM
CC(CN(C)C)Oc1ccc2[nH]c(-c3cccc(OCc4ccccc4)c3)nc2c1C#N (configuration not stated) | 410 nM
CN(C)CCNCc1nc(-c2ccc3c(Nc4ccc(Oc5ccccc5)cc4)ccnc3c2)cs1 | 740 nM
O=C(Nc1cccc(C(F)(F)F)c1)Nc1ccc2nonc2c1 | 850 nM
NC(=O)c1sc(-n2cnc3ccc(OCC4CCNCC4)cc32)cc1OCc1ccccc1C(F)(F)F | 750 nM
CN(C)CCC(=O)c1ccccc1 | 330 nM
O=C(NC1CCCCC1)C1CCCN(C(=O)c2ccc(O)c(-c3ccc(Cl)c(Cl)c3)c2)C1 (configuration not stated) | 900 nM
O=C(Nc1nc2cc(S(=O)(=O)NCc3ccc(Cl)c(Cl)c3)ccc2n1CCCN1CCCC1)c1ccc(Cl)cc1 | 940 nM
O=C(Nc1ccc(C(F)(F)F)cc1)c1ccc(NCCCN2CCCCCC2)c([N+](=O)[O-])c1 | 320 nM
Cc1cc(C)n2nc(C(=O)Nc3cc(C(F)(F)F)ccc3N3CCOCC3)nc2n1 | 120 nM
Cc1ccc(NC(=O)c2ccnc(N3CCN(c4ccncc4)CC3)c2)cc1F | 870 nM
O=C(Nc1ccc2c(c1)CN(Cc1ccc(N3CCCC3)o1)CCC2)c1ccoc1 | 950 nM
O=C(Nc1nccs1)c1cc(-c2cccnc2)nc2ccc(Br)cc12 | 400 nM
CCCc1cc(Cc2cnc(N)nc2N)cc2c1OC(C)C2C (configuration not stated) | 670 nM
Nc1c(Cl)cc(C(O)CNCCCCCCOCCC=C2CCOCC2)cc1Cl (configuration not stated) | 630 nM
CCN1CCN(Cc2ccc(NC(=O)c3cc4ccc5cccnc5c4[nH]3)cc2)CC1 | 850 nM

Structure (SMILES) | IC50
Cc1cccc(CNc2nc(C)cc(N[C@@H](CC(C)C)C(=O)NCc3cccc(F)c3)n2)c1 | 1180 nM
Cn1c(Nc2cc(C(C)(C)C)on2)nc2cc(Nc3ccnc(Nc4cccc(CS(C)(=O)=O)c4)n3)ccc21 | 570 nM
CC(C)n1cc2c(ccc3nc(N)nc(N)c32)n1 | 40 nM
CC(C)(CNC(=O)C1CCN(CCOCc2ccccc2)CC1)c1nc(-c2ccc(Cl)c(O)c2)c(-c2ccncc2)[nH]1 | 620 nM
COc1ccc(CN2CCN(CCCCNC(=O)c3ccc(NC(=O)c4ccc(Cl)cc4)cc3)CC2)c(OC)c1 | 890 nM
O=c1cc(NCCCNCc2sc(Br)c(Br)c2Br)[nH]c2ccccc12 | 1010 nM
COc1ccc(C2CC(=O)C3=C(C2)NC(C)=C(C(=O)OC(C)C)C3c2ccc(O)cc2)cc1OC (configuration not stated) | 280 nM
C[C@@H]1CN(c2nc(NCCc3ccc(O)cc3)nc(NCc3ccccc3-c3ccc(C(F)(F)F)cc3)n2)C[C@H](C)N1 | 530 nM
CC(C)(C)N1CCC(N(Cc2ccc(-c3ccc(C(F)(F)F)cc3)cc2)C(=O)Cn2c(CCc3cccc(F)c3F)cc(=O)c3cccnc32)CC1 | 710 nM
c1ccc(-c2cccc(-c3ccccn3)n2)nc1 | 900 nM
CCCCCCOc1ccc(N2C(N)=NC(N)=NC2(C)C)cc1 | 340 nM
Cc1cccc2[nH]c(-c3cccc(-c4cccc(NC(=O)c5cnn6cccnc56)c4)c3)nc12 | 670 nM
Cc1c(C(=O)Nc2cc(Sc3ccc(F)cc3)cc([N+](=O)[O-])c2)sc2ncn(Cc3ccccc3F)c(=O)c12 | 800 nM
Cc1ccc(F)c(OCC2CCN(c3ccc(C(=O)NC4CC4)cn3)CC2)c1 | 730 nM
COc1cc(OC)c(OC)cc1C=NNc1cc(C)nc2ccccc12 | 300 nM
O=C(Cc1ccc(Nc2nccc(Nc3cccc4[nH]ncc34)n2)cc1)Nc1ccc(C(F)(F)F)cc1 | 890 nM
O=C(Nc1cccc(-c2cccc(F)c2)c1)C1CCN(Cc2ccc(O)cc2)CC1 | 1730 nM
Cn1nc(-c2ccc(CNC3CCc4ccccc43)cc2)c2cnc(NCCN3CCCC3)nc21 (configuration not stated) | 1350 nM
S=C(NCCCCCN1CCC(c2c[nH]c3ccccc23)CC1)Nc1cc(Cl)cc(Cl)c1 | 870 nM
Cc1nc(-c2ccc(-c3ccc(C(=O)Nc4ccc(I)c(OCCN5CCCC5)c4)cc3)c(C)c2)no1 | 960 nM
Cc1ccccc1C1CCN(C2CCC(NC(=O)c3cc4cc(C(C)C)ccc4[nH]3)CC2)CC1 (configuration not stated) | 690 nM
COc1cccc(NC(=O)c2ccc(NCCCN3CCC(C)CC3)c([N+](=O)[O-])c2)c1 | 770 nM
O=C(Nc1ccc(OC2CCN(Cc3ccsc3)C2)c(Cl)c1)c1ccco1 (configuration not stated) | 600 nM
CC(C)n1cc(CN2CCCC(C(=O)Nc3cccc(-c4cc5ccccc5[nH]4)c3)C2)cn1 (configuration not stated) | 1000 nM
CN(C)CCNC(=O)[C@H](CC1CCCCC1)NC(=O)c1ccc(O)c(-c2ccc(Cl)c(Cl)c2)c1 | 770 nM

Structure (SMILES) | IC50
Oc1ccc(-c2nc3c4cc(I)ccc4c4ccc(I)cc4c3[nH]2)cc1 | 970 nM
C=Cc1ccc(-c2c(C)[nH]c(C)c(Br)c2=O)cc1 | 560 nM
CCCCCCCN1CC[C@H](NC(=O)Nc2ccnc3ccc(OC)cc23)[C@H](C(=O)OCC)C1 | 430 nM
Cc1ccc(-c2csc(C)n2)c(C)c1 | 990 nM
FC(F)(F)c1ccc2c(NCCCNc3ccnc4cc(C(F)(F)F)ccc34)ccnc2c1 | 30 nM
O=C(NC1CCN(CCN2CCC(c3c[nH]c4ccccc34)CC2)CC1)c1ccc(-c2ccc(C(F)(F)F)cc2)cc1 | 200 nM
CCn1c(-c2nonc2N)nc2c(-c3cccc(NC(=O)Nc4ccc5c(c4)CCC5)c3)ncc(OCCCN)c21 | 780 nM
O=C(COc1ccc(Cl)c(Cl)c1)NCCCCCN1CCCN(C(=O)Nc2ccc(Cl)c(Cl)c2)CC1 | 1730 nM
COc1ccc(NC(=O)NC2CCN(CCCCCNC(=O)/C=C/c3ccc(Cl)c(Cl)c3)CC2)cc1 | 1010 nM
Cc1[nH]c2ccccc2c1CC1CCN(CC2CCN(C(=O)/C=C/c3ccc(Cl)c(Cl)c3)CC2)CC1 | 950 nM
Cc1nc(N)nc(N)c1-c1ccc(Br)cc1 | 230 nM
OCCOCn1cnc2cnc(N[C@H]3OC[C@H](O)[C@@H](O)[C@@H]3O)nc21 | 1640 nM
COc1cc2c(cc1OC)CN(c1cc(N)c3cc(OC)c(OC)cc3n1)CC2 | 550 nM
CC(=O)N(C)c1ccc(C(=O)Nc2cccc(-c3cccc(-c4nc5c(C)cccc5[nH]4)c3)c2)cc1 | 620 nM
CC(C)N1CCC(N(Cc2ccc(-c3ccc(C(F)(F)F)cc3)cc2)C(=O)Cn2c(CCc3cccc(F)c3F)cc(=O)c3cn(C)nc32)CC1 | 1170 nM
COc1ccc(-c2cccc(NC(=O)c3cccs3)c2)cc1CN1CCCN(C)CC1 | 700 nM
c1cc(CN2CCC(CCN3CCCCC3)CC2)cc(-c2csc(-c3nc4ccccc4[nH]3)c2)c1 | 140 nM
CN1CCCN(Cc2ccc(-c3ccc(NC(=O)c4ccc(C#N)cc4)cc3)cc2)CC1 | 1020 nM
CC(=O)Nc1ncc(C(=O)Nc2cccc(-c3cccc(-c4nc5ccc(F)cc5[nH]4)c3)c2)s1 | 450 nM
COC(=O)c1ccc2c(-c3nc4ccc(OC)cc4[nH]3)c[nH]c2c1 | 880 nM
O=C(CN1CCN(S(=O)(=O)C=Cc2ccccc2)CC1)Nc1cc(C(F)(F)F)ccc1Cl | 780 nM
O=C1OC(c2ccccc2)(c2ccccn2)CN1C1CCN(Cc2cccn2-c2ccc(Cl)cc2)CC1 (configuration not stated) | 470 nM
COc1ccc(-c2cccc(NC(=O)c3ccc(Cl)cc3)c2)cc1CN1CCCN(C)CC1 | 390 nM
CC(C)C1CCc2nc(N)nc(N)c2C1 (configuration not stated) | 140 nM
O=S(=O)(c1ccc(Cl)cc1Cl)N1CCCCC(c2ccc(C(F)(F)F)cc2)=N1 | 160 nM

Structure (SMILES) | IC50
Cc1c(C)n(C2CCCC2)c2ncnc(OC3CCN(CC(=O)NCC4CC4)CC3)c12 | 890 nM
COc1cc2nc(Nc3ccc(C)cc3)nc(Nc3ccc(C)cc3)c2cc1OC | 140 nM
Fc1cccc(COc2ccc(Nc3ncnc4ccc(-c5nnc(C(F)(F)F)o5)cc34)cc2Cl)c1 | 580 nM
O=C(Nc1nc(-c2ccccn2)cs1)c1ccc(S(=O)(=O)N2CCc3ccccc32)cc1 | 830 nM
O=C(Nc1ccsc1C(=O)NC1CCCCC1)c1ccc(F)cc1 | 1210 nM
CN1CC[C@H](N(Cc2ccccc2F)c2ccc(C#N)c(Cl)c2)C1 | 1270 nM
CCOC(=O)c1cn(CC)c2cc(F)c(OC3C[C@@H]4CC[C@@]3(C)C4(C)C)cc2c1=O (some centres not stated) | 930 nM
COc1ccccc1CCNc1nc(C)cc(N[C@@H](CC(C)C)C(=O)NCc2cccc(F)c2)n1 | 970 nM
COc1ccc(NC(=O)Nc2ccc(Nc3nc(C)cc(N4CCCC4)n3)cc2)cc1 | 140 nM
CN1CCN(c2ccc(-c3cccc(NC(=O)c4ccc5ccccc5c4)c3)nn2)CC1 | 380 nM
O=C(Cn1c(CCc2cccc(F)c2F)nc(=O)c2cccnc21)N(Cc1ccc(-c2ccc(C(F)(F)F)cc2)cc1)C1CCN(C2CCSCC2)CC1 | 230 nM
Cc1cc2nc(-c3cc(Br)ccc3O)c(-c3cc(Br)ccc3O)nc2cc1C | 850 nM
COc1cccc(-c2nc3c(N4CCN(c5ccncc5)CC4)cccc3n2CC2CCCCCN2)n1 (configuration not stated) | 1060 nM
CCNc1cc(C(=O)N[C@@H](Cc2ccccc2)[C@H](O)CNCc2cccc(OC)c2)c(OC)c(N2CCCCS2(=O)=O)c1 | 690 nM
CCc1cccc(-n2nc(OCC(=O)NC3CCCC3)c3cccnc32)c1 | 930 nM
Cc1cccc2[nH]c(-c3cccc(-c4ccc(NC(=O)NC(C)C)cc4)c3)nc12 | 750 nM
CCCCCCn1c2c(c(=N)c3c1CCC3)CCCC2 | 290 nM
CCN1CCN(c2cc(C)c3cc(NC(=O)c4ccc([N+](=O)[O-])c(C)c4)ccc3n2)CC1 | 650 nM
CC1CCN(CC[C@H]2CCCN2S(=O)(=O)c2cccc(NC(=O)c3ccc(-c4ccccc4)cc3)c2)CC1 | 1260 nM
O=C(Nc1ccc2c(c1)CCN2C1CCN(Cc2ccc(F)cc2Cl)C1)c1ccco1 (configuration not stated) | 470 nM
COCCn1ccc2c3c(N)nc(N)nc3ccc21 | 210 nM
O=C(NCCCCN1CCC(c2ccc3ccccc3c2O)CC1)c1ccc(-c2ccc(Cl)cc2)cc1 | 180 nM

From PubChem BioAssay AID2305 (GlaxoSmithKline (GSK), 2010)
